# Data: patent US20250188088A1, “COMPOUND AND USE THEREOF” (ONQUALITY PHARMACEUTICALS CHINA LTD., priority 2022, published 2025)
# Read-outs that look alike come from different tables or passages of the source.
# Experiments:
# [1] = system: rash caused by small molecule EGFR inhibitors; assay: Prevention of rash caused by small molecule EGFR inhibitors, topical ointment, rat model; assay type: in vivo, SD rats
# Summary of the method: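 Female SD rats (~200 g, dorsal hair shaved, 10/group) dosed daily by gavage with small-molecule EGFR inhibitors; compound ointment or blank matrix applied once daily to ~3 cm×3 cm of back, left 4 h, then wiped off. Repeated until obvious rash in controls; control rate = % of treated rats with milder rash than controls.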
# [2] = system: rash caused by small molecule EGFR inhibitors; assay: Treatment of rash caused by small molecule EGFR inhibitors, topical ointment, rat model; assay type: in vivo, SD rats
# Method: An Experiment to Verify the Treatment of Rash Caused by Small Molecule EGFR Inhibitors with Topical Administration of Compounds of the Present Application on a Rat Animal Model After the SD rats were fed and adapted for one week (about 200 g), the rats were divided into 10 rats per group. The hair on the back of rats was gently removed with an electric razor one day before the experiment, and then an intragastric administration test was carried out. EGFR inhibitors were dissolved in a sterile aqueous solution, and diluted with PBS buffer; the amount of each gavage was not more than 2 mL, and the dosage was shown in Table 3. […] The experiments were divided into the administration group with the compound of the present application and the control group. During the treatment experiment, EGFR inhibitors were intragastrically administered continuously every day. After the gavage, the administration group applied the compound ointment of the present application on the back (about 3 cm*3 cm) of rats, and the control group applied blank matrix ointment on the back (about 3 cm*3 cm); after application, the rats were fixed with a fixed cyclinder for about 4 hours, and then the rats were released, with the residual drug at the application site wiped off with clean water, and put back into the cage. The frequency of intragastric administration of EGFR inhibitors is shown in Table 3, but the compounds of the present application and blank ointment are applied only once a day. […] Table 3 lists the animal experiment combinations of various small molecule EGFR inhibitors and the compound ointment of the present application, as well as the corresponding experiment results (wherein, the value in the control rate column=the number of rats whose rash is milder in the administration group than that in the control group/the total number of rats in the administration group×100%).
# [3] = Thermodynamic solubility assay (PBS pH 6.5; isopropyl myristate); assay type: physicochemical; conditions: thermodynamic from solid
# Method: Thermodynamic Solubility Assay
# Weigh not less than 2 mg of the sample powder into a Whatman Mini-UniPrep vial. If it is required to test the thermodynamic solubility of samples in multiple buffers, a separate vial is needed for each test; add 450 μL of buffer to each Whatman Mini-UniPrep vial, respectively; after that, install the piston cap of Whatman Mini-UniPrep and press it above the liquid level, so that the filter is in contact with the buffer during shaking; shake the solubility sample by vortexing for 1 minute.
# Inject 3 UV standard solutions from low to high concentrations into the HPLC, then inject the diluent and supernatant of the test compound, with two replicates of test sample; and integrate the UV peaks. Simulate a standard curve and calculate the thermodynamic solubility of the sample.
# [4] = Log D measurement (n-octanol/PBS shake, LC-MS/MS); assay type: physicochemical; conditions: pH 7.4, read-out: LogD7.4 (Oct/buff)
# Method: Two replicates of test compounds (DMSO stock solution 10 mM, 2 μL/well) and QCs (DMSO 10 mM, 2 μL/well) were transferred from the storage tube to a 96-well cluster tube. Add buffer-saturated n-octanol ([…]) and n-octanol-saturated PBS (149 μL/well) to each well; vortex mix the cluster tube for 1 minute, mix by shaking on a plate shaker at 880 rpm for one hour, and then centrifuge at 4000 rpm for 10 minutes. Remove the cover pad, accurately measure a certain amount of n-octanol layer samples (4 μL/well) into a 96-well plate containing n-octanol internal standard diluent (796 μL/well); accurately measure a certain amount of buffer salt layer samples (30 μL/well) into a 96-well plate containing buffer internal standard diluent (570 μL/well); the dilution factor of the sample can be adjusted according to different properties of the sample. Samples were analyzed using a triple quadrupole mass spectrometer. The processed sample solution was analyzed by the fast isocratic elution and small column retention method, the concentration correction was carried out by dilution factor and internal standard, and the ratio of the corrected peak area was used to calculate the final result (Log D/Log P value).
structure (smiles),measurement,setting,value
C[C@@H]1CCN(C(=O)CC#N)C[C@@H]1N(C)c1ncnc2c1ccn2C(=O)N(C)CCOC(=O)C1CCCO1 (stereo partly drawn) [Compound A7],Control Rate,"[1]; Afatinib 40 mg/kg once a day, ointment 0.1 wt% once a day, 14 days",20%
same,Control Rate,"[1]; Afatinib 40 mg/kg once a day, ointment 0.3 wt% once a day, 14 days",50%
same,Control Rate,"[1]; Afatinib 40 mg/kg once a day, ointment 1.0 wt% once a day, 14 days",70%
same,Control Rate,"[1]; Afatinib 40 mg/kg once a day, ointment 3.0 wt% once a day, 14 days",75%
same,Control Rate,"[1]; Afatinib 40 mg/kg once a day, ointment 5.0 wt% once a day, 14 days",80%
same,Control Rate,"[1]; Afatinib 40 mg/kg once a day, ointment 10.0 wt% once a day, 14 days",60%
same,Control Rate,"[1]; Dacomitinib 10 mg/kg once a day, ointment 1.0 wt% once a day, 12 days",40%
same,Control Rate,"[1]; Dacomitinib 10 mg/kg once a day, ointment 5.0 wt% once a day, 12 days",80%
same,Control Rate,"[1]; EAI045 80 mg/kg once a day, ointment 1.0 wt% once a day, 11 days",30%
same,Control Rate,"[1]; EAI045 80 mg/kg once a day, ointment 10.0 wt% once a day, 11 days",60%
same,Control Rate,"[1]; Gefitinib 80 mg/kg twice a day, ointment 0.3 wt% once a day, 15 days",10%
same,Control Rate,"[1]; Gefitinib 80 mg/kg twice a day, ointment 1.0 wt% once a day, 15 days",50%
same,Control Rate,"[1]; Gefitinib 80 mg/kg twice a day, ointment 3.0 wt% once a day, 15 days",60%
same,Control Rate,"[1]; Gefitinib 80 mg/kg twice a day, ointment 5.0 wt% once a day, 15 days",60%
same,Control Rate,"[1]; Osimertinib 60 mg/kg twice a day, ointment 0.3 wt% once a day, 10 days",20%
same,Control Rate,"[1]; Osimertinib 60 mg/kg twice a day, ointment 5.0 wt% once a day, 10 days",70%
same,Control Rate,"[2]; Afatinib 40 mg/kg once a day, 6 dosing modelling days, ointment 0.1 wt% once a day",20%
same,Control Rate,"[2]; Afatinib 40 mg/kg once a day, 6 dosing modelling days, ointment 3.0 wt% once a day",60%
same,Control Rate,"[2]; BPI-7711 60 mg/kg once a day, 6 dosing modelling days, ointment 3.0 wt% once a day",70%
same,Control Rate,"[2]; EAI045 80 mg/kg once a day, 8 dosing modelling days, ointment 1.0 wt% once a day",50%
same,Control Rate,"[2]; EAI045 80 mg/kg once a day, 8 dosing modelling days, ointment 5.0 wt% once a day",80%
same,Control Rate,"[2]; Larotinib 20 mg/kg once a day, 6 dosing modelling days, ointment 3.0 wt% once a day",6%
same,Control Rate,"[2]; Osimertinib 60 mg/kg twice a day, 7 dosing modelling days, ointment 3.0 wt% once a day",10%
same,Control Rate,"[2]; Osimertinib 60 mg/kg twice a day, 7 dosing modelling days, ointment 10.0 wt% once a day",70%
same,solubility thermodynamic at 24 h,"[3]; aqueous buffer, PBS buffer pH 6.5, about 25° C., read-out: Thermodynamic Solubility pH = 6.5",4390 µg/mL
same,solubility thermodynamic at 24 h,"[3]; oil or lipid, isopropyl myristate as vehicle, about 25° C., read-out: Thermodynamic Solubility in Isopropyl Myristate",375 µg/mL
same,logD,[4],0.63
